What was measured:
[1] = molecular target: T1, recombinant human adrenergic beta 1 receptors (Homo sapiens, UniProt P08588); test: Adrenergic β1 selectivity assay, [125I]-Iodocyanopindolol binding to membranes; settings: inhibition of [125I]-Iodocyanopindolol binding, read-out: β1 bind pIC50 (converted)
T1 construct: purchased Euroscreen
Experimental: (§1) Membranes containing recombinant human adrenergic beta 1 receptors were obtained from Euroscreen. These were diluted in Assay Buffer (50 mM HEPES, 1 mM EDTA, 120 mM NaCl, 0.1% gelatin, pH 7.4) to provide a final concentration of membranes that gave a clear window between maximum and minimum specific binding.
(§2) Assays were performed in U-bottomed 96-well polypropylene plates. 10 μL [^125I]-Iodocyanopindolol (0.036 nM final concentration) and 10 μL of test compound (10× final concentration) were added to each test well. For each assay plate 8 replicates were obtained for [^125I]-Iodocyanopindolol binding in the presence of 10 μL vehicle (10% (v/v) DMSO in Assay Buffer; defining maximum binding) or 10 μL Propranolol (10 μM final concentration; defining non-specific binding (NSB)). Membranes were then added to achieve a final volume of 100 μL. The plates were incubated for 2 hours at room temperature and then filtered onto PEI coated GF/B filter plates, pre-soaked for 1 hour in Assay Buffer, using a 96-well plate Tomtec cell harvester. Five washes with 250 μL wash buffer (50 mM HEPES, 1 mM EDTA, 120 mM NaCl, pH 7.4) were performed at 4° C. to remove unbound radioactivity. The plates were dried then sealed from underneath using Packard plate sealers and MicroScint-O (50 μL) was added to each well. The plates were sealed (TopSeal A) and filter-bound radioactivity was measured with a scintillation counter (TopCount, Packard BioScience) using a 3-minute counting protocol.
(§3) Total specific binding (B0) was determined by subtracting the mean NSB from the mean maximum binding. NSB values were also subtracted from values from all other wells. […] Data was fitted to a four parameter logistic equation to determine the compound potency, which was expressed as pIC50 (negative log molar concentration inducing 50% inhibition of [^125I]-Iodocyanopindolol binding).

[2] = molecular target: T2, recombinant human α1D receptor (Homo sapiens, UniProt P25100); test: Adrenergic α1D selectivity assay, [3H]-prazosin binding to membranes; settings: inhibition of [3H]-prazosin binding, HEK cell membranes, read-out: α1 bind pIC50 (converted)
T2 construct: expressed in transfected cells; host or cells: human embryonic kidney 293 cells (HEK93 [sic]), membranes
T2 sequence (P25100 1-572): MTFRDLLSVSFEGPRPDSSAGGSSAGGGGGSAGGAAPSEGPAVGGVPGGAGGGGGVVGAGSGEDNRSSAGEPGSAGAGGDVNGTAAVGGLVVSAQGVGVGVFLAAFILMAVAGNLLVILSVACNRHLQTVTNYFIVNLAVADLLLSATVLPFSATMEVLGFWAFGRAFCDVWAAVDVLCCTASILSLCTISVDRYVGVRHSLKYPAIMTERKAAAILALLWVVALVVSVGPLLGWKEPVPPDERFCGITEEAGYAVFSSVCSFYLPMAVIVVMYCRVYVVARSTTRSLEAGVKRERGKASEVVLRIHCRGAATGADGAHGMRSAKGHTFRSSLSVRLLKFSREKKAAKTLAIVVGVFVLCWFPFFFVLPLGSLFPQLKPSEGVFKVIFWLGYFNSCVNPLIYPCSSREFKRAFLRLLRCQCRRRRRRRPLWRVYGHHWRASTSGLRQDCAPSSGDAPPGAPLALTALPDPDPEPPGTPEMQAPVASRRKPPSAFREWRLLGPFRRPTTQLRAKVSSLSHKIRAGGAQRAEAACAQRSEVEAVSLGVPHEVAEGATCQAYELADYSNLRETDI
Experimental: Membranes were prepared from human embryonic kidney 293 ([…]) cells expressing recombinant human α1D receptor. These were diluted in Assay Buffer (50 mM HEPES, 1 mM EDTA, pH 7.4) to provide a final concentration of membranes that gave a clear window between maximum and minimum specific binding.
as §2, with “10 μL [^3H]-prazosin (0.3 nM final” for “10 μL [^125I]-Iodocyanopindolol (0.036 nM final”, “and […] of test” for “and 10 μL of test”, “obtained for [^3H]-prazosin binding in” for “obtained for [^125I]-Iodocyanopindolol binding in”, “10 μL BMY7378 (10 μM” for “10 μL Propranolol (10 μM”, “mM EDTA, pH 7.4)” for “mM EDTA, 120 mM NaCl, pH 7.4)”
as §3, with “[^3H]-prazosin” for “[^125I]-Iodocyanopindolol”

Adrenergic β2 = molecular target: T3, Adrenergic β2 (Homo sapiens, UniProt P07550); test: Adrenergic β2 mediated cAMP production in H292 cells (AlphaScreen cAMP detection); format: cell-based; parameters: key to β2 Int Act: fraction of formoterol maximum activity (formoterol = 1); settings: for β2 Int Act: Intrinsic Activity as a fraction relative to the maximum activity determined for formoterol; for EC50: cAMP production, 60 minutes at room temperature, 300 μM rolipram, read-out: β2 pEC50 (converted)
T3 construct: Adherent H292 cells were removed from tissue culture flasks; endogenous in cells; host or cells: H292 cells
Experimental: Adrenergic β2 Mediated cAMP Production
H292 cells were grown in 225 cm2 flasks incubator at 37° C., 5% CO2 in RPMI medium containing, 10% (v/v) FBS (foetal bovine serum) and 2 mM L-glutamine.
Adherent H292 cells were removed from tissue culture flasks by treatment with Accutase™ cell detachment solution for 15 minutes. Flasks were incubated for 15 minutes in a humidified incubator at 37° C., 5% CO2. Detached cells were re-suspended in RPMI media (containing 10% (v/v) FBS and 2 mM L-glutamine) at 1×10^6 cells per mL. 10000 cells in 100 μL were added to each well of a tissue-culture-treated 96-well plate and the cells incubated overnight in a humidified incubator at 37° C., 5% CO2. The culture media was removed and cells were washed twice with 100 μL assay buffer and replaced with 50 μL assay buffer (HBSS solution containing 10 mM HEPES pH7.4 and 5 mM glucose). Cells were rested at room temperature for 20 minutes after which time 25 μL of rolipram (1.2 mM made up in assay buffer containing 2.4% (v/v) dimethylsulphoxide) was added. Cells were incubated with rolipram for 10 minutes after which time test compounds were added and the cells were incubated for 60 minutes at room temperature. The final rolipram concentration in the assay was 300 μM and final vehicle concentration was 1.6% (v/v) dimethylsulphoxide. The reaction was stopped by removing supernatants, washing once with 100 μL assay buffer and replacing with 50 μL lysis buffer. The cell monolayer was frozen at −80° C. for 30 minutes (or overnight).
AlphaScreen™ cAMP Detection
The concentration of cAMP (cyclic adenosine monophosphate) in the cell lysate was determined using AlphaScreen™ methodology. The frozen cell plate was thawed for 20 minutes on a plate shaker then 10 μL of the cell lysate was transferred to a 96-well white plate. 40 μL of mixed AlphaScreen™ detection beads pre-incubated with biotinylated cAMP, was added to each well and the plate incubated at room temperature for 10 hours in the dark. The AlphaScreen™ signal was measured using an EnVision spectrophotometer (Perkin-Elmer Inc.) with the recommended manufacturer's settings. cAMP concentrations were determined by reference to a calibration curve determined in the same experiment using standard cAMP concentrations. Concentration response curves for agonists were constructed and data was fitted to a four parameter logistic equation to determine both the pEC50 and Intrinsic Activity. Intrinsic Activity was expressed as a fraction relative to the maximum activity determined for formoterol in each experiment.

[3] = molecular target: T4, recombinant human Dopamine Subtype D2s receptors (Homo sapiens, UniProt P14416); test: Dopamine D2 selectivity assay, [3H]-spiperone binding to membranes; settings: inhibition of [3H]-spiperone binding, read-out: D2 bind pIC50 (converted)
T4 construct: purchased Perkin Elmer
Experimental: as §1, with “Dopamine Subtype D2s” for “adrenergic beta 1”, “Perkin Elmer.” for “Euroscreen.”
Assays were performed in U-bottomed 96-well polypropylene plates. 30 μL [^3H]-spiperone (0.16 nM final concentration) and 30 μL of test compound (10× final concentration) were added to each test well. For each assay plate 8 replicates were obtained for [^3H]-spiperone binding in the presence of 30 μL vehicle (10% (v/v) DMSO in Assay Buffer; defining maximum binding) or 30 μL Haloperidol (10 μM final concentration; defining non-specific binding (NSB)). Membranes were then added to achieve a final volume of 300 μL. The plates were incubated for 2 hours at room temperature and then filtered onto PEI coated GF/B filter plates, pre-soaked for 1 hour in Assay Buffer, using a 96-well plate Tomtec cell harvester. Five washes with 250 μL wash buffer (50 mM HEPES, 1 mM EDTA, 120 mM NaCl, pH 7.4) were performed at 4° C. to remove unbound radioactivity. The plates were dried then sealed from underneath using Packard plate sealers and MicroScint-0 (50 μL) was added to each well. The plates were sealed (TopSeal A) and filter-bound radioactivity was measured with a scintillation counter (TopCount, Packard BioScience) using a 3-minute counting protocol.
as §3, with “[^3H]-spiperone” for “[^125I]-Iodocyanopindolol”

T1 sequence (P08588 whole entry): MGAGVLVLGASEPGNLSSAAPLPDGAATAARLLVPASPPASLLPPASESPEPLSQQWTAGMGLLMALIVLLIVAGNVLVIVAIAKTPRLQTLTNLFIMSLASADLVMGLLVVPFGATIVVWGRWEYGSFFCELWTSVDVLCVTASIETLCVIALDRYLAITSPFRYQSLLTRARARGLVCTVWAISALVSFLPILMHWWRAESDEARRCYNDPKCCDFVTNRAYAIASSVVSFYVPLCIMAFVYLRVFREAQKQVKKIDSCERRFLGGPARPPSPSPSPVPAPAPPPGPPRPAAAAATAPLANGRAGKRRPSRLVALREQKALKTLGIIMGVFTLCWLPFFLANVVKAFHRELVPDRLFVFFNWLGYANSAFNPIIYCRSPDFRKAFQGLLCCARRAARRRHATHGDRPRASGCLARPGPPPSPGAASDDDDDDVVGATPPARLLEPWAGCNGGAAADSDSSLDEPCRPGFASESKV
T4 sequence (P14416 1-414 isoform P14416-2): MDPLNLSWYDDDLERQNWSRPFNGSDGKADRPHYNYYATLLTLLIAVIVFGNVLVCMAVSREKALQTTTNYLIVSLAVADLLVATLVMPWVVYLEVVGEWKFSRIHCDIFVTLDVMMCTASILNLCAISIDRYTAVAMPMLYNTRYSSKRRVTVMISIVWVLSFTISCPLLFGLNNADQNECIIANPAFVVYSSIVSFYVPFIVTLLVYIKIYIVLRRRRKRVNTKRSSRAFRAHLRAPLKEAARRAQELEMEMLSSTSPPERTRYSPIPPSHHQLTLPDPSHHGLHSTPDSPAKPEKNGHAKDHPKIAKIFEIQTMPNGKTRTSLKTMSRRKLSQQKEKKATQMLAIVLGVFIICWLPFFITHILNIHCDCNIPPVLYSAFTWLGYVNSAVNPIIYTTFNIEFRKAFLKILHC
T3 sequence (P07550 whole entry): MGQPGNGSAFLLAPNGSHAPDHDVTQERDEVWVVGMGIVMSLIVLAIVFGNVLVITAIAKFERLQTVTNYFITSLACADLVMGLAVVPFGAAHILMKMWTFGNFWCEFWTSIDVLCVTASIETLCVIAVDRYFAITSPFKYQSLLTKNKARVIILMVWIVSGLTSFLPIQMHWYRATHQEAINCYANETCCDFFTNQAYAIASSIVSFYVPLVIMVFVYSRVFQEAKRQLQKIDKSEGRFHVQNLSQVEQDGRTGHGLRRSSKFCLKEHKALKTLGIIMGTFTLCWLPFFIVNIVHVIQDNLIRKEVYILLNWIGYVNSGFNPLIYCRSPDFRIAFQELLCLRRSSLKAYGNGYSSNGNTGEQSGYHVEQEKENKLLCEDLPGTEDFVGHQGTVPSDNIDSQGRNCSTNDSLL

Row | Structure (SMILES) | IC50 [1] [nM] | IC50 [2] [nM] | β2 Int Act (Adrenergic β2) | EC50 (Adrenergic β2) [nM] | IC50 [3] [nM]
1 | O=C(CCNCCc1cc(F)cc(F)c1)N(CCNCCc1ccc(O)c2[nH]c(=O)ccc12)C1CCCCCC1 [Example 10, N-Cycloheptyl-3-(3,5-difluorophenethylamino)-N-(2-(2-(8-hydroxy-2-oxo-1,2-dihydroquinolin-5-yl)ethylamino)ethyl)propanamide bis(trifluoroacetate)] | > 7940 | 316 | 0.85 | 20 | 
2 | Cc1cccc(CCNCCC(=O)N(CCNCCc2ccc(O)c3[nH]c(=O)ccc23)C2CCCCCC2)c1 [Example 8, N-Cycloheptyl-N-(2-(2-(8-hydroxy-2-oxo-1,2-dihydroquinolin-5-yl)ethylamino)ethyl)-3-(3-methylphenethylamino)propanamide bis(trifluoroacetate)] |  | 100 | 0.79 | 6.31 | 398
3 | O=C(CCNCCc1cccc(F)c1)N(CCNCCc1ccc(O)c2[nH]c(=O)ccc12)C1CCCCCC1 [Example 5, N-Cycloheptyl-3-(3-fluorophenethylamino)-N-(2-(2-(8-hydroxy-2-oxo-1,2-dihydroquinolin-5-yl)ethylamino)ethyl)propanamide bis(trifluoroacetate)] |  | 158 | 0.82 | 7.94 | 501

Further lines, results first:

Row | IC50 [1] [nM] | IC50 [2] [nM] | β2 Int Act (Adrenergic β2) | EC50 (Adrenergic β2) [nM] | IC50 [3] [nM] | Structure (SMILES)
4 | 2510 | 79.4 | 0.9 | 1.58 |  | Cc1ccc(F)c(CCNCCC(=O)N(CCNCCc2ccc(O)c3c2OCC(=O)N3)C2CCCCC2)c1 [Example 33, N-Cyclohexyl-3-(2-fluoro-5-methylphenethylamino)-N-(2-(2-(5-hydroxy-3-oxo-3,4-dihydro-2H-benzo[b][1,4]oxazin-8-yl)ethylamino)ethyl)propanamide bis(trifluoroacetate)]
5 | 1000 | 63.1 | 0.9 | 1.58 |  | O=C1COc2c(CCNCCN(C(=O)CCNCCc3cc(Cl)ccc3F)C3CCCCC3)ccc(O)c2N1 [Example 34, 3-(5-Chloro-2-fluorophenethylamino)-N-cyclohexyl-N-(2-(2-(5-hydroxy-3-oxo-3,4-dihydro-2H-benzo[b][1,4]oxazin-8-yl)ethylamino)ethyl)propanamide bis(trifluoroacetate)]
6 |  | 200 | 0.87 | 10 | 1260 | O=C(CCNCCc1cccc(F)c1)N(CCNCCc1ccc(O)c2[nH]c(=O)ccc12)C1CCCCC1 [Example 19, N-Cyclohexyl-3-(3-fluorophenethylamino)-N-(2-(2-(8-hydroxy-2-oxo-1,2-dihydroquinolin-5-yl)ethylamino)ethyl)propanamide]
7 | > 10000 | 316 | 0.85 | 20 |  | O=C(CCNCCc1ccc(F)c(F)c1)N(CCNCCc1ccc(O)c2[nH]c(=O)ccc12)C1CCCCC1 [Example 16, N-Cyclohexyl-3-(3,4-difluorophenethylamino)-N-(2-(2-(8-hydroxy-2-oxo-1,2-dihydroquinolin-5-yl)ethylamino)ethyl)propanamide bis(trifluoroacetate)]

Reference: patent publication US20100056508A1, “AMINE DERIVATIVES AND THEIR USE IN BETA-2-ADRENORECEPTOR MEDIATED DISEASES” (ASTRAZENECA AB, priority 2006, published 2010)
